“Also recorded” adds a separate entry of the source.
Tested on: Tn5 transposase enzyme bound to tagmented DNA (tagmented DNA complex), Mg^2+ cofactor
Assay: Removal of Tn5 transposase from tagmented DNA complex after tagmentation with Mg2+ cofactor (library yield and insert size profile after PCR)
Text: As such Mg^2+ was the divalent cation cofactor.
In the workflow for experiment A: DNA was first tagmented, appending the transferred strand of the adaptor to the 5′ ends of the tagmented DNA, and then treated with water (not sodium dodecyl sulfate (SDS)), thus keeping the Tn5 bound to the tagmented DNA. The tagmented DNA complex was washed and subjected to PCR (including high temperature heating which may dissociate the Tn5) to append adaptor sequences to the 3′ ends of the tagmented DNA.
In the workflow for experiment, B: DNA was first tagmented, appending the transferred strand of the adaptor to the 5′ ends of the tagmented DNA, and then was treated with SDS to denature the Tn5 enzyme, thus dissociating it from the tagmented DNA complex. The SDS was washed away and the tagmented DNA fragments were exposed to PCR to append adaptor sequences to the 3′ ends of the tagmented DNA.
Some of the supernatant was analyzed using a TapeStation. The size profile and yield of the tagmented DNA fragments from experiments A and B were measured using the TapeStation.
As such, Mg^2+ was the divalent cation cofactor.
In the workflow for experiment A: DNA was first tagmented, appending the transferred strand of the adaptor to the 5′ ends of the tagmented DNA. Tn5 was removed by adding 1% SDS and incubating for 5 minutes at 25° C.
In the workflow for experiment B: DNA was first tagmented, appending the transferred strand of the adaptor to the 5′ ends of the tagmented DNA. […] In experiment B, the transposase removal fluid included 100 mM Tris-HCl, pH 8.6, 100 mM NaCl, and 0.6 mM EDTA.
In the workflow for experiments A and B: DNA was first tagmented, appending the transferred strand of the adaptor to the 5′ ends of the tagmented DNA. Tn5 was removed by adding 1% SDS and incubating for 5 minutes at 25° C.
In the workflow for experiments C and D: DNA was first tagmented, appending the transferred strand of the adaptor to the 5′ ends of the tagmented DNA.
For each of these experiments, the tagmentation buffer included water, 4% DMF, 2 mM magnesium acetate, and 4 mM tris acetate salt, pH 7.6. As such Mg^2+ was the divalent cation cofactor.
In the workflow for experiment B: DNA was first tagmented, appending the transferred strand of the adaptor to the 5′ ends of the tagmented DNA. […] In experiment B, the transposase removal fluid included 140 mM Tris, pH 8.8, 100 mM KCl, and 1.8 mM EDTA. […] The sample was processed under Extension-Ligation and PCR-cycling conditions with a ligase, non-strand displacing polymerase and Q5 polymerase in a buffer base with 2.4 mM Magnesium.
In the workflow for experiment A: DNA was first tagmented using the Mg^2+ tagmentation buffer described in this example, appending the transferred strand of the adaptor to the 5′ ends of the tagmented DNA. Tn5 was removed by adding 1% SDS and incubating for 5 minutes at 25° C.
In the workflow for experiment D: DNA was first tagmented using the Mg^2+ tagmentation buffer described in this example, appending the transferred strand of the adaptor to the 5′ ends of the tagmented DNA.
In the workflow for experiment A: DNA was first tagmented, appending the transferred strand of the adaptor to the 5′ ends of the tagmented DNA. […] In experiment A, the transposase removal fluid included 500 mM Tris, pH 8.6, 100 mM NaCl, and 15 mM 2-hydroxy-4-oxo-4-thiophen-2-yl-but-2-enoic acid integrase inhibitor. […]

Row | SMILES | Dissociation of Tn5 enzyme from tagmented DNA complex (yield and insert size profile, FIG. 5) (Example 2, supernatant discarded, 100 mM Tris-HCl pH 8.6, 100 mM NaCl, 0.6 mM EDTA, 1 minute at 60° C., compared with 1% SDS) | Dissociation of Tn5 from tagmented DNA complex (size profile and yield, FIG. 6) (Example 3, applied directly without removing supernatant, 100 mM Tris-HCl pH 8.6, 100 mM NaCl, 6 mM EDTA, 1 minute at 60° C.) | Dissociation of Tn5 from tagmented DNA complex (size profile and yield, FIG. 7) (Example 4, 140 mM Tris pH 8.8, 100 mM KCl, 1.8 mM EDTA, 1 minute at 60° C., extension-ligation and PCR added directly with 2.4 mM magnesium) | Tn5 removal from the tagmented product complex (yield and insert size profile, FIG. 4) (Example 1, SDS treatment versus water and high temperature heating of PCR, Mg2+ cofactor, sulfate)
1 | O=C(O)CN(CCN(CC(=O)O)CC(=O)O)CC(=O)O [EDTA, ethylenediaminetetraacetic acid] | sufficient to replace SDS as a reagent for dissociating the Tn5 enzyme from a tagmented DNA complex | can effectively dissociate Tn5 from the tagmented DNA complex | can dissociate Tn5 from the tagmented DNA complex | 
2 | CCCCCCCCCCCCOS(=O)(=O)[O-].[Na+] [SDS, sodium dodecyl sulfate] |  |  |  | more effective than heating alone; also recorded: more effective in removing Tn5 from the tagmented product complex than the high temperature heating used in PCR
